Experimental data published in EP0152542A1, “Pyrrol-3-carboxylic acids having central analgesic activity” (POLI INDUSTRIA CHIMICA S.p.A., priority 1983, dated 1985).

Tested on: not listed separately
Experiment: Acute toxicity per os in the mouse (LD50 at the 14th observation day)
Conditions: in vivo, po, comparison compound, per os, read-out: LD50 mouse per os
Experimental: (§1) The analgesic activity of the compounds of for mula I, administered by the oral route has been determined by means of the following tests: • - Phenylquinone test in mice (Hendershot and Forsa ith - J. Pharmacol. Exp. Ther. 123, 237 (1959)) • - Hot plate test - Male albino mice, treated with increasing doses of the compound under test, are placed on a thermostatized plate at 55°C. The time necessary for the mouse to react to the painful stimulus is then measured. An effective dose 50 (ED50) is defined as the dose inducing a 50% increase of the reaction time, with respect to control animals. • - The acute toxicity per os has been studied in the mouse and in the rat and expressed as LD50 at the 14th observation day.

SMILES | LD50 at 336 h
COc1ccc2c3c1O[C@H]1[C@@H](O)C=C[C@H]4[C@@H](C2)N(C)CC[C@@]341.Cl [codeine hydrochloride, reference compound] | 300 mg/kg

Same assay, conditions: in vivo, po, mice, per os, 14th observation day, read-out: LD50 MICE OS

SMILES | LD50 at 336 h
Cc1c(C(=O)O)c(C)n(C)c1C(=O)c1ccc(Cl)cc1Cl [R=CH3, R1=Cl, R2=H, R3=Cl, 1,2,4-Trimethyl-5-(2,4-dichlorobenzoyl)-pyrrol-3-carboxylic acid] | 1400 mg/kg

Same assay, conditions: in vivo, po, read-out: LD50 MICE OS

SMILES | LD50 at 336 h
Cc1c(C(=O)O)c(C)n(Cc2ccccc2Cl)c1C(=O)c1ccc(Cl)cc1 | 1200 mg/kg
CCCCn1c(C)c(C(=O)O)c(C)c1C(=O)c1ccc(Cl)cc1 [R=C4H9, R1=Cl, R2=H, R3=H] | 1300 mg/kg
Cc1ccc(C(=O)c2c(C)c(C(=O)O)c(C)n2C)cc1 [R=CH3, R1=CH3, R2=H, R3=H] | 1400 mg/kg
Cc1c(C(=O)O)c(C)n(Cc2ccccc2)c1C(=O)c1ccc(Cl)cc1 | 1500 mg/kg
Cc1c(C(=O)O)c(C)n(C)c1C(=O)c1ccc(Cl)cc1 [R=CH3, R1=Cl, R2=H, R3=H, reference compound] | 800 mg/kg
Cc1c(C(=O)O)c(C)n(C)c1C(=O)c1ccc(Cl)c(Cl)c1 [R=CH3, R1=Cl, R2=Cl, R3=H] | 800 mg/kg
COc1ccc(C(=O)c2c(C)c(C(=O)O)c(C)n2C)cc1 [R=CH3, R1=OCH3, R2=H, R3=H] | > 1600 mg/kg

Tested on: not listed separately
Experiment: Acute toxicity per os in the rat (LD50 at the 14th observation day)
Conditions: in vivo, po
Experimental: as §1

SMILES | LD50 at 336 h
Cc1c(C(=O)O)c(C)n(Cc2ccccc2Cl)c1C(=O)c1ccc(Cl)cc1 | > 1600 mg/kg
CCCCn1c(C)c(C(=O)O)c(C)c1C(=O)c1ccc(Cl)cc1 [R=C4H9, R1=Cl, R2=H, R3=H] | > 1600 mg/kg
Cc1ccc(C(=O)c2c(C)c(C(=O)O)c(C)n2C)cc1 [R=CH3, R1=CH3, R2=H, R3=H] | > 1600 mg/kg
Cc1c(C(=O)O)c(C)n(Cc2ccccc2)c1C(=O)c1ccc(Cl)cc1 | > 1600 mg/kg
Cc1c(C(=O)O)c(C)n(C)c1C(=O)c1ccc(Cl)cc1 [R=CH3, R1=Cl, R2=H, R3=H, reference compound] | > 1600 mg/kg
Cc1c(C(=O)O)c(C)n(C)c1C(=O)c1ccc(Cl)c(Cl)c1 [R=CH3, R1=Cl, R2=Cl, R3=H] | > 1600 mg/kg
COc1ccc(C(=O)c2c(C)c(C(=O)O)c(C)n2C)cc1 [R=CH3, R1=OCH3, R2=H, R3=H] | > 1600 mg/kg

Same assay, conditions: in vivo, po, per os, 14th observation day

SMILES | LD50 at 336 h
Cc1c(C(=O)O)c(C)n(C)c1C(=O)c1ccc(Cl)cc1Cl [R=CH3, R1=Cl, R2=H, R3=Cl, 1,2,4-Trimethyl-5-(2,4-dichlorobenzoyl)-pyrrol-3-carboxylic acid] | 1700 mg/kg

Tested on: mice
Experiment: Phenylquinone test in mice (analgesic activity)
Assay type: in vivo
Conditions: Mus musculus, po, read-out: ED50 phenylquinone
Experimental: as §1

SMILES | ED50
COc1ccc2c3c1O[C@H]1[C@@H](O)C=C[C@H]4[C@@H](C2)N(C)CC[C@@]341.Cl [codeine hydrochloride, reference compound] | 5.6 mg/kg

Same assay, conditions: Mus musculus; mice, oral; read-out: PHENYLQUINONE ED50 OS

SMILES | ED50
Cc1c(C(=O)O)c(C)n(Cc2ccccc2Cl)c1C(=O)c1ccc(Cl)cc1 | 10.8 mg/kg
Cc1c(C(=O)O)c(C)n(C)c1C(=O)c1ccc(Cl)cc1Cl [R=CH3, R1=Cl, R2=H, R3=Cl, 1,2,4-Trimethyl-5-(2,4-dichlorobenzoyl)-pyrrol-3-carboxylic acid] | 10.9 mg/kg
CCCCn1c(C)c(C(=O)O)c(C)c1C(=O)c1ccc(Cl)cc1 [R=C4H9, R1=Cl, R2=H, R3=H] | 6.3 mg/kg
Cc1ccc(C(=O)c2c(C)c(C(=O)O)c(C)n2C)cc1 [R=CH3, R1=CH3, R2=H, R3=H] | 10 mg/kg
Cc1c(C(=O)O)c(C)n(Cc2ccccc2)c1C(=O)c1ccc(Cl)cc1 | 7.6 mg/kg
Cc1c(C(=O)O)c(C)n(C)c1C(=O)c1ccc(Cl)cc1 [R=CH3, R1=Cl, R2=H, R3=H, reference compound] | 4.6 mg/kg
Cc1c(C(=O)O)c(C)n(C)c1C(=O)c1ccc(Cl)c(Cl)c1 [R=CH3, R1=Cl, R2=Cl, R3=H] | 7.5 mg/kg
COc1ccc(C(=O)c2c(C)c(C(=O)O)c(C)n2C)cc1 [R=CH3, R1=OCH3, R2=H, R3=H] | 8.4 mg/kg

Tested on: Male albino mice
Experiment: Hot plate test (thermostatized plate at 55°C, reaction time to painful stimulus)
Assay type: in vivo
Conditions: Mus musculus, comparison compound, route not given, read-out: ED50 hot plate

SMILES | ED50
COc1ccc2c3c1O[C@H]1[C@@H](O)C=C[C@H]4[C@@H](C2)N(C)CC[C@@]341.Cl [codeine hydrochloride, reference compound] | 25 mg/kg

Same assay, conditions: Mus musculus, sc, S.C., ED50 = dose inducing a 50% increase of the reaction time versus controls, plate at 55°C, read-out: HOT PLATE ED50 S.C. MICE

SMILES | ED50
Cc1c(C(=O)O)c(C)n(Cc2ccccc2Cl)c1C(=O)c1ccc(Cl)cc1 | 5.5 mg/kg
Cc1c(C(=O)O)c(C)n(C)c1C(=O)c1ccc(Cl)cc1Cl [R=CH3, R1=Cl, R2=H, R3=Cl, 1,2,4-Trimethyl-5-(2,4-dichlorobenzoyl)-pyrrol-3-carboxylic acid] | 5.7 mg/kg
CCCCn1c(C)c(C(=O)O)c(C)c1C(=O)c1ccc(Cl)cc1 [R=C4H9, R1=Cl, R2=H, R3=H] | 2.9 mg/kg
Cc1ccc(C(=O)c2c(C)c(C(=O)O)c(C)n2C)cc1 [R=CH3, R1=CH3, R2=H, R3=H] | > 10 mg/kg
Cc1c(C(=O)O)c(C)n(Cc2ccccc2)c1C(=O)c1ccc(Cl)cc1 | 4.8 mg/kg
Cc1c(C(=O)O)c(C)n(C)c1C(=O)c1ccc(Cl)cc1 [R=CH3, R1=Cl, R2=H, R3=H, reference compound] | 2.3 mg/kg
Cc1c(C(=O)O)c(C)n(C)c1C(=O)c1ccc(Cl)c(Cl)c1 [R=CH3, R1=Cl, R2=Cl, R3=H] | 4.7 mg/kg
COc1ccc(C(=O)c2c(C)c(C(=O)O)c(C)n2C)cc1 [R=CH3, R1=OCH3, R2=H, R3=H] | 7.6 mg/kg

Tested on: cyclooxygenase and the prostaglandinsynthetase
Experiment: not given
Conditions: known compound, background statement; cited from earlier work

SMILES | inhibits the cyclooxygenase and the prostaglandinesynthetase
Cc1cc(CC(=O)O)n(C)c1C(=O)c1ccc(Cl)cc1 [Zomepirac, 5-(p-chlorobenzoyl)-1,4-dimethyl-pyrrol-2-acetic acid] | inhibits
